Reference: PMC10744608, “Simplified Synthesis of Renieramycin T Derivatives to Target Cancer Stem Cells via β-Catenin Proteasomal Degradation in Human Lung Cancer” (Marine Drugs, 2023)

Legend:
Assay type in all cases: cell-based, human
[1] = tested on: β-catenin in A549, H292, and H23 cells; experiment: Immunofluorescence of β-catenin; settings: 24 h; DH_32 0–100 nM, RT 25 nM
Protocol: A549, H23, and H292 NSCLC cells were seeded at a concentration of 1 × 10^4 cells per well in 96-well plates. The cells were exposed to different concentrations of DH_32 (0, 25, 50, and 100 nM) for 24 h, after which the medium was removed. Following that, the cells were subjected to fixation with 4% paraformaldehyde for 15 min. The cells were permeabilization with 0.5% Triton-X for 5 min, followed by the blocking of non-specific proteins with 10% FBS in 0.1% Triton-X PBS for 1 h at room temperature. The cells were exposed to a 1:400 dilution of primary antibodies (CD133, CD44, ALDH1A1, OCT4, NANOG, SOX2, and β-catenin) and incubated at 4 °C overnight. On the subsequent day, the cells were treated with a 1:500 dilution of the following secondary antibodies: Alexa Fluor 594-conjugated goat anti-rabbit IgG (H+L) (Invitrogen) and Alexa Fluor 488-conjugated goat anti-mouse IgG (H+L) (Invitrogen). Simultaneously, the localization of nuclei was stained with Hoechst 33342 for 1 h at room temperature. The cells were rinsed with PBS and then covered with 50% glycerol. The images were captured by a fluorescence microscope (Olympus IX 51 with DP70; Olympus America Inc., Center valley, PA, USA). The fluorescence intensity was measured by Image J software. RT acted as the positive control for this experiment.

A549 cells [2] = experiment: Western blot of apoptosis-related proteins (cleaved PARP, Bcl-2, Bax)
Protocol: The protein expression levels in NSCLC cells were assessed through Western blot analysis. A549, H23, and H292 cells were seeded at a density of 4 × 10^5 cells per well in 6-well cell culture plates. These cells were subjected to treatments with DH_32 at concentrations of 0, 25, 50, and 100 nM for 24 h at 37 °C.
Following treatment, the cells were collected using cold PBS and incubated on ice with a lysis buffer. The lysis buffer contained 50 mM 4-(2-hydroxyethyl)-1-piperazineethanesulfonic acid (pH 7.5), 150 mM NaCl, 5 mM EDTA, 1% Triton X-100, 1 mM phenylmethylsufonyl fluoride, and 2 μg/mL pepstatin A (cat no: 9803, Cell Signaling), along with complete protease inhibitor cocktail tablets provided in EASYpack (Roche, cat no: 04693116001). The incubation occurred for 40 min on ice, followed by centrifugation at 12,000× g at 4 °C for 15 min. Cell lysates were collected, and the protein content was quantified using the bicinchoninic acid (BCA) protein kit from Thermo-Fisher Scientific, Rockford, IL, USA. The sample was denatured by heating at 95 °C for 5 min with a sample buffer. The protein was loaded onto a 10% sodium dodecyl sulfate polyacrylamide gel electrophoresis (SDS-PAGE). Following gel separation, the proteins were transferred onto a nitrocellulose membrane with a pore size of 0.45 μm. The membranes were incubated with 5% nonfat dry milk in TBST (25 mm Tris-HCl, pH 7.4, 125 mm NaCl, and 0.05% Tween 20) for 1 h 30 min. Following this, the membrane was exposed to primary antibodies (Cell Signaling) including rabbit PARP, BcL2, Bax, CD133, CD44, OCT4, ALDH1A1, and β-catenin, and incubated at 4 °C overnight. Rabbit β-actin served as the control for loading normalization. The primary antibodies were diluted to 1:1000 in 5% w/v BSA in TBST. The membranes were washed with TBST and were then exposed to horseradish-peroxidase (HRP)-conjugated isotype-specific secondary antibodies, as well as anti-rabbit and anti-mouse IgG (1:2000 in 5% w/v skim milk in TBST), for 1 h at RT. Membranes were washed again with TBST. A chemiluminescent substrate (Supersignal West Pico; Pierce, Rockford, IL, USA) was applied to detect complex reactivity, and the signal intensity was quantified through densitometry. Protein intensity was analyzed by using ImageJ software (Image J 1.52a, Rasband, W., National Institutes of Health, Bethesda, MD, USA). RT acted as the positive control for this experiment.

A549 cells [3] = experiment: Colony formation assay; settings: A549, 25 nM, 24 h treatment then 7 days growth
Protocol: (§1) A clonogenic or colony formation assay was utilized to explore the capability of cancer cells to proliferate from single cells and form tumor colonies in response to DH_32 treatment. A single-cell suspension of NSCLC cells (A549, H23, and H292) was seeded at a density of 250 cells per well in a 6-well plate and permitted to adhere for 12 h. The cells were treated to different concentrations of DH_32 (0, 25, 50, and 100 nM) for a duration of 24 h. Subsequently, the medium containing the drug was aspirated, and fresh complete medium was introduced. The colonies were cultured for a period of 7 days, with the medium being renewed every 2 days. The colonies were washed with PBS, followed by fixation using a solution of methanol and acetic acid (3:1 v/v) for 5 min. Subsequently, they were stained with crystal violet (0.05% w/v in 4% paraformaldehyde) for 30 min. The excess crystal violet stain was washed away with distilled water until a clear background was obtained, and the samples were left to air-dry at room temperature. The colonies were photographed, and the captured images were analyzed using ImageJ software to determine the count of stained colonies. In this experiment, RT served as the positive control.

H23 cells [4] = experiment: Colony formation assay; settings: H23, 25 nM, 24 h treatment then 7 days growth
Protocol: as §1

H292 cells [5] = experiment: Colony formation assay; settings: H292, 25 nM, 24 h treatment then 7 days growth
Protocol: as §1

A549 cells [6] = experiment: Proliferation assay (MTT)
Protocol: (§2) An MTT assay was employed to evaluate the antiproliferative impact of the right-half RT analog, DH_32, over a period of three consecutive days. The human NSCLC cells lines A549, H23, and H292 were seeded at a cell density of 2 × 10^3 cells per well in a 96-well plate. The cells were exposed to low concentrations (0, 25, 50, and 100 nM) of DH_32 at various time points (0 h, 24 h, 48 h, and 72 h) and then incubated under 5% CO2 at 37 °C. Subsequently, the cell viability was assessed using an MTT assay at 0 h, 24 h, 48 h, and 72 h. The percentage of cell proliferation was determined by dividing the optical density (OD) of the cells at each time point by the OD of the non-treated control cells. In this experiment, RT served as the positive control.

H23 cells [7] = experiment: Proliferation assay (MTT); settings: H23, 24 h, 25 nM
Protocol: as §2

H292 cells [8] = experiment: Proliferation assay (MTT); settings: H292, 24 h, 25 nM
Protocol: as §2

[9] = A549, 48 h, DH_32 25, 50, and 100 nM, RT 25 and 50 nM

With COC1=C(C)C(=O)C2=C(C1=O)[C@@H]1CN(Cc3ccc4ccccc4c3)[C@@H](C#N)[C@H](C2)N1C [DH_32, (1R,4R,5S)-9-methoxy-8,11-dimethyl-3-(naphthalen-2-ylmethyl)-7,10-dioxo-1,2,3,4,5,6,7,10-octahydro-1,5-epiminobenzo[d]azocine-4-carbonitrile] the “β-catenin level by immunofluorescence” value [1] was “decrease in the fluorescence signal of β-catenin”, the “anti-apoptotic Bcl-2 protein level” value (A549 cells [2]; A549, 0–100 nM, 24 h) was “significant reduction in a dose-dependent manner” and the “cleaved PARP level” value (A549 cells [2]; A549, 50 nM, 24 h, compared to the RT treatment) was “six-fold increase”. For the same compound, the “pro-apoptotic protein Bax level” value (A549 cells [2]; A549, 24 h, compared to the parent compound) was “two-fold increase”, the inhibition at 0.025 µM (A549 cells [3]; Homo sapiens, read-out: colony formation inhibition rate) was 90.83 ± 0.1% and the inhibition at 0.025 µM (H23 cells [4]; Homo sapiens, NCI-H23, read-out: colony formation inhibition rate) was 78.49 ± 0.08%. For the same compound, the inhibition at 0.025 µM (H292 cells [5]; Homo sapiens, NCI-H292, read-out: colony formation inhibition rate) was 79.74 ± 0.14%, the proliferation rate (A549 cells [6]; A549, 24 h, 50 and 100 nM) was “decreased proliferation rate” and the proliferation rate (A549 cells [6]; [9]) was “significant reduction in cell proliferation”. The proliferation rate (H23 cells [7]) was “substantial reduction in the proliferation rate” and the proliferation rate (H292 cells [8]) was “substantial reduction in the proliferation rate”.
For CC=C(C)C(=O)OCC1c2c(c(O)c(C)c3c2OCO3)CC2C3C4=C(CC(C(C#N)N12)N3C)C(=O)C(C)=C(OC)C4=O (stereo not shown) [RT, Renieramycin T], the “β-catenin level by immunofluorescence” value [1] was “unaltered level of β-catenin”, the “colony formation inhibition rate” value (A549 cells [3]) was 72.58 ± 0.07% and the “colony formation inhibition rate” value (H23 cells [4]) was 58.75 ± 0.01%. For the same compound, the “colony formation inhibition rate” value (H292 cells [5]) was 32.22 ± 0.05%, the proliferation rate (A549 cells [6]; A549, 24 h, 50 and 100 nM) was “did not affect the proliferation” and the proliferation rate (A549 cells [6]; [9]) was “did not exhibit any effect”. The proliferation rate (H23 cells [7]) was “did not exhibit any change in their proliferation rate” and the proliferation rate (H292 cells [8]) was “did not exhibit any change in their proliferation rate”.
